Test [1] relates to Acinetobacter baumannii ATCC17978. As to the kind of experiment: Antimicrobial susceptibility testing, 90% growth inhibitory concentration (IC90) determination, ATCC17978. Conditions: Iso-Sensitest broth, OD 600 nm over 16 h, 35±2° C., read-out: ATCC 17978 IC90. In kind it is cell-based. Put shortly: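 Serial twofold dilutions (e.g. 50 to 0.097 μM final) in Iso-Sensitest broth, inoculum ~5×10^(5) CFU/ml, incubated 35±2 °C for 16 h. OD600 read every 20 min; growth inhibition calculated during logarithmic growth to derive the concentration inhibiting 90% of growth, in μM.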

Test [2] has as its system Acinetobacter baumannii ATCC17961. As to the kind of experiment: Antimicrobial susceptibility testing, 90% growth inhibitory concentration (IC90) determination, ATCC17961. In kind it is cell-based. The following applies: Iso-Sensitest broth, OD 600 nm over 16 h, 35±2° C., read-out: ATCC 17961 IC90. The procedure:
Antimicrobial Susceptibility Testing: 90% Growth Inhibitory Concentration (IC90) Determination The in vitro antimicrobial activity of the compounds was determined according to the following procedure: The assay used a 10-points Iso-Sensitest broth medium to measure quantitatively the in vitro activity of the compounds against Acinetobacter baumannii ATCC17978 or ATCC17961. Stock compounds in DMSO were serially twofold diluted (e.g. range from 50 to 0.097 μM final concentration) in 384 wells microtiter plates and inoculated with 49 μl the bacterial suspension in Iso-Sensitest medium to have a final cell concentration of ˜5×10^(5) CFU/ml in a final volume/well of 50 ul/well. Microtiter plates were incubated at 35±2° C. Bacterial cell growth was determined with the measurement of optical density at X=600 nm each 20 minutes over a time course of 16 h. Growth inhibition was calculated during the logarithmic growth of the bacterial cells with determination of the concentration inhibiting 50% (IC50) and 90% (IC90) of the growth. Table 2 provides the 90% growth inhibitory concentrations (IC90) in micromoles per liter of the compounds of present invention obtained against the strain Acinetobacter baumannii ATCC17961.

`Cn1c(-c2ccc(OCC#N)c(F)c2F)cnc1C(=O)Nc1ccc(C(=O)NCCNC(=O)[C@H]2CCNC[C@@H]2O)c(Cl)c1` [Example B35, (3R,4S)-N-[2-[[2-chloro-4-[[5-[4-(cyanomethoxy)-2,3-difluoro-phenyl]-1-methyl-imidazole-2-carbonyl]amino]benzoyl]amino]ethyl]-3-hydroxy-piperidine-4-carboxamide;formic acid]: the 90% effect concentration (IC90) in test [1] turned out to be 1300 nM. On to `Cn1c(-c2ccc(OCC#N)c(F)c2F)cnc1C(=O)Nc1ccc(C(=O)NCCNC(=O)[C@H]2C[C@@](C)(O)CN2)c(Cl)c1` [Example B36, N-[3-chloro-4-[2-[[(2R,4R)-4-hydroxy-4-methyl-pyrrolidine-2-carbonyl]amino]ethylcarbamoyl]phenyl]-5-[4-(cyanomethoxy)-2,3-difluoro-phenyl]-1-methyl-imidazole-2-carboxamide;formic acid], for which the IC90 in test [1] was 1100 nM. Same read-out and setting: to `CC[C@]1(O)CN[C@@H](C(=O)NCCNC(=O)c2ccc(NC(=O)c3ncc(-c4ccc(OCC#N)c(F)c4F)n3C)cc2Cl)C1` [Example B37, N-[3-chloro-4-[2-[[(2R,4R)-4-ethyl-4-hydroxy-pyrrolidine-2-carbonyl]amino]ethylcarbamoyl]phenyl]-5-[4-(cyanomethoxy)-2,3-difluoro-phenyl]-1-methyl-imidazole-2-carboxamide;formic acid] belongs 850 nM; to `COc1ccc(-c2cnc(C(=O)Nc3ccc(C(=O)N[C@H]4C[C@@H](NC(=O)C5CCNCC5)C4)c(Cl)c3)n2C)c(F)c1F` [Example B39, N-[3-[[2-chloro-4-[[5-(2,3-difluoro-4-methoxy-phenyl)-1-methyl-imidazole-2-carbonyl]amino]benzoyl]amino]cyclobutyl]piperidine-4-carboxamide;formic acid], 57 nM.

With `COc1ccc(-c2cnc(C(=O)Nc3ccc(C(=O)N[C@H]4C[C@@H](NC(=O)C5(O)CCNCC5)C4)c(Cl)c3)n2C)c(F)c1F` [Example B40, N-[3-[[2-chloro-4-[[5-(2,3-difluoro-4-methoxy-phenyl)-1-methyl-imidazole-2-carbonyl]amino]benzoyl]amino]cyclobutyl]-4-hydroxy-piperidine-4-carboxamide;formic acid], the IC90 in test [1] is 120 nM. In the case of `COc1ccc(-c2cnc(C(=O)Nc3ccc(C(=O)N[C@H]4C[C@@H](NC(=O)[C@@H]5CCNC[C@@H]5O)C4)c(Cl)c3)n2C)c(F)c1F` [Example B41, (3R,4R)-N-[3-[[2-chloro-4-[[5-(2,3-difluoro-4-methoxy-phenyl)-1-methyl-imidazole-2-carbonyl]amino]benzoyl]amino]cyclobutyl]-3-hydroxy-piperidine-4-carboxamide;formic acid], in test [1], the IC90 was determined as 130 nM. For the compound `COc1ccc(-c2cnc(C(=O)Nc3ccc(C(=O)N[C@H]4C[C@@H](NC(=O)[C@H]5CCNC[C@H]5O)C4)c(Cl)c3)n2C)c(F)c1F` [Example B42, (3S,4S)-N-[3-[[2-chloro-4-[[5-(2,3-difluoro-4-methoxy-phenyl)-1-methyl-imidazole-2-carbonyl]amino]benzoyl]amino]cyclobutyl]-3-hydroxy-piperidine-4-carboxamide;formic acid], in test [1], the IC90 is 73 nM. For `COc1ccc(-c2cnc(C(=O)Nc3ccc(C(=O)N[C@H]4[C@@H]5CN(C(=O)[C@@H]6C[C@@H](O)CN6)C[C@@H]54)c(Cl)c3)n2C)c(F)c1F` [Example B43, N-[3-chloro-4-[[(exo)-3-[(2S,4R)-4-hydroxyprolyl]-3-azabicyclo[3.1.0]hexan-6-yl]carbamoyl]phenyl]-5-(2,3-difluoro-4-methoxy-phenyl)-1-methyl-imidazole-2-carboxamide; 1:1 hydrogen chloride], the IC90 in test [2] is 139 nM. The same measure, in the same setting: to `COc1ccc(-c2cnc(C(=O)Nc3ccc(C(=O)N[C@H]4[C@@H]5CN(C(=O)N[C@@H]6CNC[C@H]6O)C[C@@H]54)c(Cl)c3)n2C)c(F)c1F` [Example B44, (exo)-6-[[2-chloro-4-[[5-(2,3-difluoro-4-methoxy-phenyl)-1-methyl-imidazole-2-carbonyl]amino]benzoyl]amino]-N-[(trans)-4-hydroxypyrrolidin-3-yl]-3-azabicyclo[3.1.0]hexane-3-carboxamide; 1:1 hydrogen chloride] belongs 155 nM. With `Cn1c(-c2ccc(OC(F)F)c(F)c2F)cnc1C(=O)Nc1ccc(C(=O)NCCC2CN(CC3CNC3)C2)c(Cl)c1` [Example C1, N-[4-[2-[1-(Azetidin-3-ylmethyl)azetidin-3-yl]ethylcarbamoyl]-3-chloro-phenyl]-5-[4-(difluoromethoxy)-2,3-difluoro-phenyl]-1-methyl-imidazole-2-carboxamide;2,2,2-trifluoroacetic acid], the IC90 in test [1] stood at 830 nM. As for `CCc1cc(NC(=O)c2ncc(-c3ccc(OC(F)F)c(F)c3F)n2C)ccc1C(=O)NCCCNC(=O)C1CCN(CC2CCNC2)CC1` (centres unmarked) [Example C2, N-[3-[[4-[[5-[4-(difluoromethoxy)-2,3-difluoro-phenyl]-1-methyl-imidazole-2-carbonyl]amino]-2-ethyl-benzoyl]amino]propyl]-1-(pyrrolidin-3-ylmethyl)piperidine-4-carboxamide;formic acid], in test [1], the IC90 was 370 nM. On the same count and under the same terms, to `CCc1cc(NC(=O)c2ncc(-c3ccc(OC(F)F)c(F)c3F)n2C)ccc1C(=O)NCCCNC(=O)C1CCN(CC2CNC2)CC1` [Example C3, 1-(azetidin-3-ylmethyl)-N-[3-[[4-[[5-[4-(difluoromethoxy)-2,3-difluoro-phenyl]-1-methyl-imidazole-2-carbonyl]amino]-2-ethyl-benzoyl]amino]propyl]piperidine-4-carboxamide;formic acid] belongs 450 nM; to `COc1ccc(-c2cnc(C(=O)Nc3ccc(C(=O)NCC4CCN(CC5CNC5)CC4)c(Cl)c3)n2C)c(F)c1F` [Example C4, N-[4-[[1-(azetidin-3-ylmethyl)-4-piperidyl]methylcarbamoyl]-3-chloro-phenyl]-5-(2,3-difluoro-4-methoxy-phenyl)-1-methyl-imidazole-2-carboxamide;2,2,2-trifluoroacetic acid], 750 nM. For the compound `CNC(=O)c1ccc(NC(=O)c2ncc(-c3ccc(OC)cc3)n2C)cc1C` [Example D1, 5-(4-Methoxyphenyl)-1-methyl-N-[3-methyl-4-(methylcarbamoyl)phenyl]imidazole-2-carboxamide], the IC90 in test [1] amounted to 3200 nM.

(Values after patent US20230257354A1, “NOVEL HETEROCYCLIC COMPOUNDS” (Hoffmann-La Roche Inc., priority 2020, published 2023).)
